Measured values published in PubChem BioAssay AID1963845 (Molecular Pharmacology Branch, DTP, NCI, 2024).

Test system: 429239-143-T-J1-PDC complex spheroid viability
Experiment: Anticancer human tumor 429239-143-T-J1-PDC patient-derived small cell lung carcinoma cell line growth inhibition [POLQ]
Conditions: for IC50: curve of first compound; for viability, T/C: stronger effect = lower value; active = viability on the fitted dose curve at most 10% of control; inactive = the rest
In short: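 Growth inhibition in 3D: complex spheroids (tumor PDC, HUVEC, MSC) treated with POLQ inhibitor combinations; where Cmax unknown, highest tested concentration 10 microM, except SN-38 at 1 microM.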

[1] = second compound 0.0316 µM, first compound 0.0316 µM
[2] = second compound 0.0316 µM, first compound 0.1 µM
[3] = second compound 0.0316 µM, first compound 0.316 µM
[4] = second compound 0.0316 µM, first compound 1 µM
[5] = second compound 0.0316 µM, first compound 3.16 µM
[6] = second compound 0.0316 µM, first compound 10 µM
[7] = second compound 0.1 µM, first compound 0.0316 µM
[8] = second compound 0.1 µM, first compound 0.1 µM
[9] = second compound 0.1 µM, first compound 0.316 µM
[10] = second compound 0.1 µM, first compound 1 µM
[11] = second compound 0.1 µM, first compound 3.16 µM
[12] = second compound 0.1 µM, first compound 10 µM
[13] = second compound 0.316 µM, first compound 0.0316 µM
[14] = second compound 0.316 µM, first compound 0.1 µM
[15] = second compound 0.316 µM, first compound 0.316 µM
[16] = second compound 0.316 µM, first compound 1 µM
[17] = second compound 0.316 µM, first compound 3.16 µM
[18] = second compound 0.316 µM, first compound 10 µM
[19] = second compound 1 µM, first compound 0.0316 µM
[20] = second compound 1 µM, first compound 0.1 µM
[21] = second compound 1 µM, first compound 0.316 µM
[22] = second compound 1 µM, first compound 1 µM
[23] = second compound 1 µM, first compound 3.16 µM
[24] = second compound 1 µM, first compound 10 µM
[25] = second compound 3.16 µM, first compound 0.0316 µM
[26] = second compound 3.16 µM, first compound 0.1 µM
[27] = second compound 3.16 µM, first compound 0.316 µM
[28] = second compound 3.16 µM, first compound 1 µM
[29] = second compound 3.16 µM, first compound 3.16 µM
[30] = second compound 3.16 µM, first compound 10 µM
[31] = second compound 10 µM, first compound 0.0316 µM
[32] = second compound 10 µM, first compound 0.1 µM
[33] = second compound 10 µM, first compound 0.316 µM
[34] = second compound 10 µM, first compound 1 µM
[35] = second compound 10 µM, first compound 3.16 µM
[36] = second compound 10 µM, first compound 10 µM
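Also: luminescence signal used as surrogate measure of viable cells; spheroids exposed to compounds for seven days before readout.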
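For viability, T/C in this document: 100% = DMSO vehicle control viability as luminescence relative to vehicle.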

COc1cc(C2c3cc4c(cc3C(OC3OC5COC(C)OC5C(O)C3O)C3COC(=O)C23)OCO4)cc(OC)c1O (stereo unspecified) + Nc1ccc(C#CCN(C(=O)Cc2ncc(C(F)(F)F)cc2C(F)(F)F)c2ccc(F)cc2)nn1
486 nM: IC50 (second compound 3.16 µM)
inactive: viability, T/C [1] 106% | viability, T/C [2] 103% | viability, T/C [3] 76.4% | viability, T/C [4] 11.7% | viability, T/C [7] 103% | viability, T/C [8] 99.5% | viability, T/C [9] 73% | viability, T/C [10] 12% | viability, T/C [13] 104% | viability, T/C [14] 105% | viability, T/C [15] 77.2% | viability, T/C [16] 12.9% | viability, T/C [19] 92.5% | viability, T/C [20] 95.3% | viability, T/C [21] 68.5% | viability, T/C [22] 12.6% | viability, T/C [25] 100% | viability, T/C [26] 95.2% | viability, T/C [27] 71.3% | viability, T/C [28] 14.6% | viability, T/C [31] 100% | viability, T/C [32] 96.1% | viability, T/C [33] 66.1% | viability, T/C [34] 11.5%
active: viability, T/C [5] 6.31% | viability, T/C [6] 7.42% | viability, T/C [11] 7.16% | viability, T/C [12] 6.74% | viability, T/C [17] 5.81% | viability, T/C [18] 7.82% | viability, T/C [23] 7.75% | viability, T/C [24] 8.54% | viability, T/C [29] 5.65% | viability, T/C [30] 8.11% | viability, T/C [35] 5.67% | viability, T/C [36] 7.88%
463 nM: IC50 (second compound 1 µM)
444 nM: IC50 (second compound 10 µM)
506 nM: IC50 (second compound 0.0316 µM)
489 nM: IC50 (second compound 0.1 µM)
514 nM: IC50 (second compound 0.316 µM)

CC[C@@]1(O)C(=O)OCc2c1cc1n(c2=O)Cc2cc3c(CN(C)C)c(O)ccc3nc2-1 + Nc1ccc(C#CCN(C(=O)Cc2ncc(C(F)(F)F)cc2C(F)(F)F)c2ccc(F)cc2)nn1
17.7 nM: IC50 (second compound 3.16 µM) | IC50 (second compound 10 µM)
inactive: viability, T/C (second compound 0.0316 µM, first compound 0.000316 µM) 95.7% | viability, T/C (second compound 0.0316 µM, first compound 0.001 µM) 103% | viability, T/C (second compound 0.0316 µM, first compound 0.00316 µM) 106% | viability, T/C (second compound 0.0316 µM, first compound 0.01 µM) 84.2% | viability, T/C (second compound 0.1 µM, first compound 0.000316 µM) 103% | viability, T/C (second compound 0.1 µM, first compound 0.001 µM) 95.5% | viability, T/C (second compound 0.1 µM, first compound 0.00316 µM) 103% | viability, T/C (second compound 0.1 µM, first compound 0.01 µM) 86.9% | viability, T/C (second compound 0.316 µM, first compound 0.000316 µM) 101% | viability, T/C (second compound 0.316 µM, first compound 0.001 µM) 106% | viability, T/C (second compound 0.316 µM, first compound 0.00316 µM) 96.5% | viability, T/C (second compound 0.316 µM, first compound 0.01 µM) 92.5% | viability, T/C (second compound 1 µM, first compound 0.000316 µM) 107% | viability, T/C (second compound 1 µM, first compound 0.001 µM) 100% | viability, T/C (second compound 1 µM, first compound 0.00316 µM) 99.6% | viability, T/C (second compound 1 µM, first compound 0.01 µM) 82.9% | viability, T/C (second compound 3.16 µM, first compound 0.000316 µM) 101% | viability, T/C (second compound 3.16 µM, first compound 0.001 µM) 98% | viability, T/C (second compound 3.16 µM, first compound 0.00316 µM) 99.8% | viability, T/C (second compound 3.16 µM, first compound 0.01 µM) 89.3% | viability, T/C (second compound 10 µM, first compound 0.000316 µM) 104% | viability, T/C (second compound 10 µM, first compound 0.001 µM) 103% | viability, T/C (second compound 10 µM, first compound 0.00316 µM) 93.5% | viability, T/C (second compound 10 µM, first compound 0.01 µM) 87.8% | viability, T/C [31] 11.9%
16.9 nM: IC50 (second compound 0.0316 µM)
16.7 nM: IC50 (second compound 1 µM)
17.9 nM: IC50 (second compound 0.316 µM)
17.3 nM: IC50 (second compound 0.1 µM)
active: viability, T/C [1] 9.5% | viability, T/C [2] 5.15% | viability, T/C [7] 9.05% | viability, T/C [8] 5.15% | viability, T/C [13] 7.36% | viability, T/C [14] 9.85% | viability, T/C [19] 8.94% | viability, T/C [20] 5.82% | viability, T/C [25] 9.67% | viability, T/C [26] 5.18% | viability, T/C [32] 7.53%

C=CC(=O)N1CCN(c2nc(=O)n(-c3c(C)ccnc3C(C)C)c3nc(-c4c(O)cccc4F)c(F)cc23)C(C)C1 (stereo unspecified) + COC1C(OC(N)=O)C(O)C(Oc2ccc3c(O)c(NC(=O)c4ccc(O)c(CC=C(C)C)c4)c(=O)oc3c2C)OC1(C)C
inactive: viability, T/C [1] 107% | viability, T/C [2] 89.5% | viability, T/C [3] 94% | viability, T/C [4] 94.6% | viability, T/C [5] 107% | viability, T/C [6] 112% | viability, T/C [7] 104% | viability, T/C [8] 94.3% | viability, T/C [9] 93.6% | viability, T/C [10] 104% | viability, T/C [11] 87.9% | viability, T/C [12] 97.7% | viability, T/C [13] 96.7% | viability, T/C [14] 90.8% | viability, T/C [15] 91.7% | viability, T/C [16] 91.7% | viability, T/C [17] 103% | viability, T/C [18] 101% | viability, T/C [19] 98.4% | viability, T/C [20] 94.6% | viability, T/C [21] 99.8% | viability, T/C [22] 96.6% | viability, T/C [23] 103% | viability, T/C [24] 101% | viability, T/C [25] 94.9% | viability, T/C [26] 107% | viability, T/C [27] 95.3% | viability, T/C [28] 95.3% | viability, T/C [29] 98.7% | viability, T/C [30] 103% | viability, T/C [31] 79.5% | viability, T/C [32] 84.8% | viability, T/C [33] 91.5% | viability, T/C [34] 87.7% | viability, T/C [35] 104% | viability, T/C [36] 103%
> 10000 nM: IC50 (second compound 0.0316 µM) | IC50 (second compound 0.1 µM) | IC50 (second compound 0.316 µM) | IC50 (second compound 1 µM) | IC50 (second compound 3.16 µM) | IC50 (second compound 10 µM)
